Experimental data from patent US8129396B2, “2-[1H-benzimidazol-2(3H)-ylidene]-2-(pyrimidin-2-yl)acetamides and 2-[benzothiazol-2(3H)-ylidene]-2-(pyrimidin-2-yl)acetamides as kinase inhibitors” (Telik, Inc., priority 2008, dated 2012).

How the values were obtained:
[1] = biological target: T1, VEGFR2 kinase (Homo sapiens, UniProt P35968); test: VEGFR2 kinase assay; assay type: biochemical; conditions: 6 μM ATP, 1 mM MnCl2; rounded to 1 significant figure
T1 construct: purchased Cell Signaling Technology
T1 sequence (P35968 20-1356): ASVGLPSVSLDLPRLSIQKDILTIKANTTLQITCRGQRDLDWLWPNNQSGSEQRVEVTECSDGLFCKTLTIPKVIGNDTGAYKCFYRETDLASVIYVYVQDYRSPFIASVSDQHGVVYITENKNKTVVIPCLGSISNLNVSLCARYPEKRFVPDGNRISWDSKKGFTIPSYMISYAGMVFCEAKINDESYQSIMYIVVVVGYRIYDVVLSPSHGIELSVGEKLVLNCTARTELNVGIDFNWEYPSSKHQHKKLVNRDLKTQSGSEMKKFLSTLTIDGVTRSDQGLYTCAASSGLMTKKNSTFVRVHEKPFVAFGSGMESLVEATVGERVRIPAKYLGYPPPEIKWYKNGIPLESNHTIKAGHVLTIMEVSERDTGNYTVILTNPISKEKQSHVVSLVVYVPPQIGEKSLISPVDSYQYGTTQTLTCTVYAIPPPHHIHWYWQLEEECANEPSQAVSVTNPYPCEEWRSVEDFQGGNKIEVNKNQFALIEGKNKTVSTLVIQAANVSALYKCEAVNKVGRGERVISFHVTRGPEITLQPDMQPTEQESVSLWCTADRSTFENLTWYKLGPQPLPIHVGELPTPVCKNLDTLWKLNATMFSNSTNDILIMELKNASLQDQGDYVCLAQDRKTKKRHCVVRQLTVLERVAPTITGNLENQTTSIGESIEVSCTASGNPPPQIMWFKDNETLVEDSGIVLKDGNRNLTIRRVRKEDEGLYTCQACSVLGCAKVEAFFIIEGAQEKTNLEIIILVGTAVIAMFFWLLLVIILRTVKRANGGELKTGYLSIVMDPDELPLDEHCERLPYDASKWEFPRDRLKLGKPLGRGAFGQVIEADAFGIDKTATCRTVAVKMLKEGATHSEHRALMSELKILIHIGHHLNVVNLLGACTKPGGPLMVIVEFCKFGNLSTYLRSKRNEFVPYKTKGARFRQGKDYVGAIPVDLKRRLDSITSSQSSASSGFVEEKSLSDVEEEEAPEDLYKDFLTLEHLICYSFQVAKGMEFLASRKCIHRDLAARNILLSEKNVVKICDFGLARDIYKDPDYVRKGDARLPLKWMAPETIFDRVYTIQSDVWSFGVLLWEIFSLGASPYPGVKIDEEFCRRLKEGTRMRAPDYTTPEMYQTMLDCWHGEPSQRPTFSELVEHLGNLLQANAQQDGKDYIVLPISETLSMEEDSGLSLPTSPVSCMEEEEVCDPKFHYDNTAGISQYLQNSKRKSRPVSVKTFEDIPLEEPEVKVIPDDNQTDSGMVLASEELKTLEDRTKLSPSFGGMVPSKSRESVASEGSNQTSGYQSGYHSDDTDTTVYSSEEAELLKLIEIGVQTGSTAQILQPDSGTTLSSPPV
From the text: (§1) The cell lines HL60 (human promyelocytic leukemia) and HCT116 (human colon carcinoma) were obtained from the American Type Culture Collection, Manassas, Va., U.S.A., and HUVEC-2 (human umbilical vein endothelial cells) from BD Biosciences, Bedford, Mass., U.S.A. Aurora A kinase was obtained from Upstate Biotech, Billerica, Mass., U.S.A.; Aurora B kinase from BPS Bioscience, San Diego, Calif., U.S.A.; and VEGFR2 kinase from Cell Signaling Technology, Danvers, Mass., U.S.A. The IMAP FP Screening Express kit was obtained from Molecular Devices, Sunnyvale, Calif., U.S.A.; the CellTiter-Glo assay kit from Promega Corporation, Madison, Wis., U.S.A.; and the Cellular DNA Cytometric Analysis Reagent Kit and BrdU labeling and detection kit from Roche Diagnostics Corporation, Indianapolis, Ind., U.S.A. All products were used in accordance with manufacturer's directions. Kinase inhibition assays and the histone phosphorylation (p-H3) assay were conducted in duplicate, and the cytotoxicity and HUVEC proliferation assays were conducted in triplicate, in each case with solvent control.
This assay was performed as for the Aurora A kinase assay, using VEGFR2 kinase, CSKtide as the substrate with 6 μM ATP and 1 mM MnCl2, a kinase reaction time of 1 hr, and dilution of the binding reagent 1:1200 in binding buffer A/binding buffer B (1:1).

[2] = biological target: T2, Aurora B kinase (Homo sapiens, UniProt Q96GD4); test: Aurora B kinase assay (IMAP fluorescence polarization); assay type: biochemical; conditions: 10 μM ATP; rounded to 1 significant figure; read-out: Aur-B IC50
T2 construct: purchased BPS Bioscience
T2 sequence (Q96GD4 whole entry): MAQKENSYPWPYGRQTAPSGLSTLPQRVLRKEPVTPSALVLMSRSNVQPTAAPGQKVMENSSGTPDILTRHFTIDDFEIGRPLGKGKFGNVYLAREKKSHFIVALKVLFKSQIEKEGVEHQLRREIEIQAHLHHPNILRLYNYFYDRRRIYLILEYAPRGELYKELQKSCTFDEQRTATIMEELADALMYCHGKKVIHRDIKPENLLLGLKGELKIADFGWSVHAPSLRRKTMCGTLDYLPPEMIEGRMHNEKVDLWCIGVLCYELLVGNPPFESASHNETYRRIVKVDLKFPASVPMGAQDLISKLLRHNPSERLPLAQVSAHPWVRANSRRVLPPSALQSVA
From the text: as §1
(§2) The kinase reaction was initiated by adding 100 nM fluorescein labeled PKAtide and 10 μM adenosine triphosphate (ATP), and allowed to continue for 45 min at room temperature, after which it was stopped by adding binding reagent (1:400 dilution in binding buffer A). After 30 min of room temperature incubation with shaking, the fluorescence polarization was measured on a LJL plate reader. Aurora B kinase assay: performed as for the Aurora A kinase assay, but using Aurora B kinase instead of Aurora A kinase.

[3] = test system: HCT116 (human colon carcinoma) cells; test: HCT116 cytotoxicity assay (CellTiter-Glo); assay type: cell-based; conditions: HCT-116, 72 h, cytotoxicity, three days culture, read-out: HCT116 IC50
From the text: as §1
Log-phase cells were trypsinized, collected by centrifugation, and resuspended in a small volume of fresh medium, and the density of viable cells was determined following Trypan Blue staining. Cells were diluted in fresh media (1×10^4 cells/mL for HL60 and 4×10^4 cells/mL for HCT116 cells), the test compounds (concentrations between 0.1 μM and 200 μM, dissolved in DMSO, 50 μL) added immediately after dilution to achieve a final DMSO concentration of 0.5%, then the suspensions added at 150 μL/well to 96-well plates, and incubated overnight to allow attachment in the case of adherent cells. The cells were cultured for three days (about three doubling times). The cells were then collected by centrifugation, and 100 μL of the culture supernatant was replaced by the CellTiter-Glo reagent. After incubation for 15 minutes at room temperature, the plate was read with a luminometer.

[4] = test system: p-H3 in HCT116 cells; test: Histone phosphorylation (p-H3) assay; assay type: cell-based; conditions: Homo sapiens, HCT-116; HCT116 cells, 4 hr incubation; read-out: p-H3 IC50
From the text: as §1
Log phase HCT116 cells were seeded at 2.5×10^4 cells/well in a 96-well plate and allowed to attach overnight. The test compounds were diluted in DMSO (8 concentrations with serial 3-fold dilutions) and added to the cells (0.5% DMSO final concentration), and the cells incubated for 4 hr. The cells were then washed three times with cold phosphate-buffered saline (PBS), and lysis buffer was added. After 30 min shaking at 4° C. and centrifugation, the supernatants were transferred to a nitrocellulose membrane by a “dot-blot” apparatus. After washing the wells, the membrane was processed for Western blot. Detection of p-H3 and β-actin was performed on the same membrane with primary rabbit anti-p-H3 and mouse anti-β-actin antibodies followed by secondary goat anti-rabbit IRDye800 and goat anti-mouse AlexaFluor 680 antibodies. The membranes were scanned on an Odyssey scanner.

[5] = biological target: T3, Aurora A kinase (Homo sapiens, UniProt O14965); test: Aurora A kinase assay (IMAP fluorescence polarization); assay type: biochemical; conditions: 10 μM ATP; rounded to 1 significant figure; read-out: Aur-A IC50
T3 construct: purchased Upstate Biotech
T3 sequence (O14965 1-403): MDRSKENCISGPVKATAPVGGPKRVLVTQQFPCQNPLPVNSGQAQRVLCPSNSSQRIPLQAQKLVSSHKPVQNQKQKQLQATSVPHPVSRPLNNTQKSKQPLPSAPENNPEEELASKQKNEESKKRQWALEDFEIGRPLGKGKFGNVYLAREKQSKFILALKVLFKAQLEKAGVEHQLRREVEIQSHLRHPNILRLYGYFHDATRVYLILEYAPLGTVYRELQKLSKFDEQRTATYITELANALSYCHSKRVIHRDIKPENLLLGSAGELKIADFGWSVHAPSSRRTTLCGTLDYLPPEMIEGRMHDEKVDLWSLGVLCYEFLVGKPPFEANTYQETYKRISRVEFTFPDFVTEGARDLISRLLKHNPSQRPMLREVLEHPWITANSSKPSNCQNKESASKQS
From the text: as §1
as §2, with “Aurora A kinase assay: the test compounds were diluted in dimethylsulfoxide (DMSO, eight concentrations with serial 3-fold dilutions) and incubated (final DMSO concentration 2.5%) with Aurora A kinase at room temperature for 5 min in kinase reaction buffer with 1 mM dithiothreitol (IMAP FP Screening Express). The” for “The”

| IC50 [1] [µM] | IC50 [2] [µM] | IC50 [4] [µM] | IC50 [5] [µM] | SMILES | IC50 [3] [µM] |
| --- | --- | --- | --- | --- | --- |
| 1 | 0.1 | > 50 | 0.2 | NC(=O)C(=C1Nc2ccc([N+](=O)[O-])cc2S1)c1nccc(C(F)(F)F)n1 (single isomer, unassigned) [Compound 26A, 2-[6-nitrobenzothiazol-2(3H)-ylidene]-2-(4-trifluoromethylpyrimidin-2-yl)acetamide] | 20 |
| 0.09 | 0.01 | 20 | 0.02 | COC(=O)c1cnc(/C(C(N)=O)=C2/Nc3ccccc3S2)nc1C(F)(F)F [Compound 3A] | 3 |
| 0.03 | 0.01 | > 40 | 0.004 | COC(=O)c1cnc(C(C(N)=O)=C2Nc3ccccc3N2)nc1C(F)(F)F [Compound 4A] | 2 |
| 0.08 | 0.03 | > 50 | 0.05 | NC(=O)/C(=C1\Nc2ccccc2S1)c1nc(OCCN2CCOCC2)cc(C(F)(F)F)n1 [Compound 14A] | 8 |
| 0.5 | 0.04 | 2 | 0.2 | Cc1ccnc(/C(C(N)=O)=C2/Nc3ccccc3S2)n1 [Compound 18A] | 20 |
|  | 0.03 | > 50 | 0.4 | Cc1ccnc(C(C(N)=O)=C2Nc3ccccc3N2)n1 [Compound 19A] | 20 |
| 1 | 0.1 |  | 0.2 | CCc1cnc(/C(C(N)=O)=C2/Nc3ccccc3S2)nc1 [Compound 21A] | 20 |
| 0.2 | 0.01 | 2 | 0.08 | Cc1cc(C)nc(/C(C(N)=O)=C2/Nc3ccccc3S2)n1 [Compound 22A] | 10 |
| 0.1 | 0.006 | 8 | 0.07 | COC(=O)c1cc(C)nc(/C(C(N)=O)=C2/Nc3ccccc3S2)n1 [Compound 23A] | 50 |
| 0.4 | 1 |  | 0.9 | Cc1cc(C(=O)O)nc(/C(C(N)=O)=C2/Nc3ccccc3S2)n1 [Compound 24A] | > 50 |
| 0.4 | 0.1 | > 50 | 0.2 | NC(=O)/C(=C1\Nc2ccc(I)cc2S1)c1nccc(C(F)(F)F)n1 [Compound 25A] | 10 |
| 0.01 | 0.009 | 1 | 0.003 | NC(=O)/C(=C1\Nc2ccc(C(=O)O)cc2S1)c1nccc(C(F)(F)F)n1 [Compound 27A] | 7 |
| 0.1 | 0.01 | > 5 | 0.03 | COC(=O)c1ccc2c(c1)N/C(=C(/C(N)=O)c1nccc(C(F)(F)F)n1)N2 [Compound 29A] | 0.2 |
| 0.008 | 0.01 | 1 | 0.01 | NC(=O)/C(=C1\Nc2ccc(C(=O)N(CCO)CCO)cc2N1)c1nccc(C(F)(F)F)n1 [Compound 30A] |  |
| 0.02 | 0.005 | 0.6 | 0.009 | NC(=O)/C(=C1\Nc2ccc(CO)cc2N1)c1nccc(C(F)(F)F)n1 [Compound 35A] | 0.2 |
| 0.2 | 0.04 | > 5 | 0.03 | NC(=O)/C(=C1/Nc2cc(F)cc(F)c2N1)c1nccc(C(F)(F)F)n1 [Compound 36A] | 4 |
|  | 0.01 |  | 0.006 | CCN(C(=O)c1ccc2c(c1)N/C(=C(/C(N)=O)c1nccc(C(F)(F)F)n1)N2)c1cccnc1 [Compound 43A] |  |
| 0.1 | 0.06 | > 50 | 0.06 | NC(=O)/C(=C1\Nc2cccc(C(=O)NCCCN3CCOCC3)c2S1)c1nccc(C(F)(F)F)n1 [Compound 52A] | 1 |
| 0.01 | 0.02 | 0.9 | 0.05 | NCCCNC(=O)c1ccc2c(c1)N/C(=C(/C(N)=O)c1nccc(C(F)(F)F)n1)N2 [Compound 64A] | 2 |
| 0.007 | 0.02 | 0.4 | 0.03 | NCCCNC(=O)c1ccc2c(c1)S/C(=C(/C(N)=O)c1nccc(C(F)(F)F)n1)N2 [Compound 65A] | 0.2 |
| 0.004 | 0.01 | 1 | 0.06 | NC(=O)/C(=C1\Nc2ccc(C(=O)NC3CCNCC3)cc2N1)c1nccc(C(F)(F)F)n1 [Compound 70A] | 0.6 |
|  | 0.008 |  | 0.006 | Cn1cncc1CCc1ccc2c(c1)S/C(=C(/C(N)=O)c1nccc(C(F)(F)F)n1)N2 [Compound 98A] |  |
|  | 0.007 | 0.05 | 0.004 | NC(=O)/C(=C1\Nc2ccc(CCN3CCOCC3)cc2N1)c1nccc(C(F)(F)F)n1 [Compound 102A] |  |
|  | 0.007 | 0.1 | 0.005 | NC(=O)/C(=C1\Nc2ccc(CCO)cc2N1)c1nccc(C(F)(F)F)n1 [Compound 105A] |  |
| 0.09 | 0.04 | 2 | 0.1 | NC(=O)/C(=C1\Nc2ccc(N3CCC(N)C3)cc2S1)c1nccc(C(F)(F)F)n1 (centres unmarked) [Compound 123A] | 4 |
| 0.04 | 0.03 | 2 | 0.08 | NC(=O)/C(=C1\Nc2ccccc2S1)c1nc(NCCN2CCOCC2)cc(C(F)(F)F)n1 [Compound 137A] | 2 |
